Marks after values point to notes of the source that are not given here.
Experiment: Binary excipient screening: stability of CPMM 1 mg/mL in IV-compatible excipient solutions in 10 mM pH 3 phosphate buffer
Assay type: physicochemical
Conditions: for CPMM % Purity: t = 0
Protocol: CPMM was evaluated for compatibility with excipients that are suitable for IV administration. A buffer solution (phosphate at pH 3) was selected as the diluent for excipient screening studies. […] CPMM was solubilized in each excipient solution at 1 mg/mL.
While CPMM completely dissolved in the control sample within several minutes, many of the excipient solutions required overnight storage at 5° C. to solubilize the drug.
Each excipient sample solution was placed on a two-week stability study at 25° C./60% relative humidity and 40° C./75% relative humidity, and analyzed for CPMM purity at t=0, 1, and 2 weeks by comparing individual samples to their respective excipient blank solution.

COC(=O)C1(OC(=O)c2cncn2[C@H](C)c2ccccc2)CC1 [CPMM, 1-(methoxycarbonyl)cyclopropyl-1-[(1R)-1-phenylethyl]-1H-imidazole-5-carboxylate]
Change in CPMM % Purity (Lutrol F68 1% in pH 3 buffer, 1 week 40° C./75% RH): −5.2%
Change in CPMM % Purity (Lutrol F68 1% in pH 3 buffer, 2 weeks 25° C./60% RH): −2.5%
Change in CPMM % Purity (Lutrol F68 1% in pH 3 buffer, 2 weeks 40° C./75% RH): −9.0%
CPMM % Purity (Lutrol F68 1% in pH 3 buffer): 99.5%
Change in CPMM % Purity (Mannitol 5% in pH 3 buffer, 1 week 25° C./60% RH): −1.5%
Change in CPMM % Purity (Mannitol 5% in pH 3 buffer, 1 week 40° C./75% RH): −5.2%
Change in CPMM % Purity (Mannitol 5% in pH 3 buffer, 2 weeks 25° C./60% RH): −2.6%
Change in CPMM % Purity (Mannitol 5% in pH 3 buffer, 2 weeks 40° C./75% RH): −9.1%
CPMM % Purity (Mannitol 5% in pH 3 buffer): 99.4%
Change in CPMM % Purity (NaCl 5% in pH 3 buffer, 1 week 25° C./60% RH): −1.1%
Change in CPMM % Purity (NaCl 5% in pH 3 buffer, 1 week 40° C./75% RH): −4.0%
Change in CPMM % Purity (NaCl 5% in pH 3 buffer, 2 weeks 25° C./60% RH): −1.9%
Change in CPMM % Purity (NaCl 5% in pH 3 buffer, 2 weeks 40° C./75% RH): −7.2%
CPMM % Purity (NaCl 5% in pH 3 buffer): 99.4%
Change in CPMM % Purity (PEG 400 10% in pH 3 buffer, 1 week 25° C./60% RH): −1.2%
Change in CPMM % Purity (PEG 400 10% in pH 3 buffer, 1 week 40° C./75% RH): −4.0%
Change in CPMM % Purity (PEG 400 10% in pH 3 buffer, 2 weeks 25° C./60% RH): −2.0%
Change in CPMM % Purity (PEG 400 10% in pH 3 buffer, 2 weeks 40° C./75% RH): −7.0%
CPMM % Purity (PEG 400 10% in pH 3 buffer): 99.5%
CPMM % Purity (PVP K17 5% in pH 3 buffer, excipient peak co-elutes with several related substances, not accounted for): 99.6%*
Change in CPMM % Purity (Polysorbate 20 1% in pH 3 buffer, 1 week 25° C./60% RH): −1.4%
Change in CPMM % Purity (Polysorbate 20 1% in pH 3 buffer, 1 week 40° C./75% RH): −4.6%
Change in CPMM % Purity (Polysorbate 20 1% in pH 3 buffer, 2 weeks 25° C./60% RH): −2.1%
Change in CPMM % Purity (Polysorbate 20 1% in pH 3 buffer, 2 weeks 40° C./75% RH): −8.1%
CPMM % Purity (Polysorbate 20 1% in pH 3 buffer): 99.4%
Change in CPMM % Purity (Polysorbate 80 1% in pH 3 buffer, 1 week 25° C./60% RH, may be due to excipient impurities): −4.2%^†
Change in CPMM % Purity (Polysorbate 80 1% in pH 3 buffer, 1 week 40° C./75% RH, may be due to excipient impurities): −8.3%^†
Change in CPMM % Purity (Polysorbate 80 1% in pH 3 buffer, 2 weeks 25° C./60% RH, may be due to excipient impurities): −5.2%^†
Change in CPMM % Purity (Polysorbate 80 1% in pH 3 buffer, 2 weeks 40° C./75% RH, may be due to excipient impurities): −15.0%^†
CPMM % Purity (Polysorbate 80 1% in pH 3 buffer): 99.4%
Change in CPMM % Purity (Propylene Glycol 10% in pH 3 buffer, 1 week 25° C./60% RH): −1.2%
Change in CPMM % Purity (Propylene Glycol 10% in pH 3 buffer, 1 week 40° C./75% RH): −4.0%
Change in CPMM % Purity (Propylene Glycol 10% in pH 3 buffer, 2 weeks 25° C./60% RH): −1.9%
Change in CPMM % Purity (Propylene Glycol 10% in pH 3 buffer, 2 weeks 40° C./75% RH): −6.9%
CPMM % Purity (Propylene Glycol 10% in pH 3 buffer): 99.4%
Change in CPMM % Purity (SBECD 10% in pH 3 buffer, 1 week 25° C./60% RH): −0.4%
Change in CPMM % Purity (SBECD 10% in pH 3 buffer, 1 week 40° C./75% RH): −1.3%
Change in CPMM % Purity (SBECD 10% in pH 3 buffer, 2 weeks 25° C./60% RH): −0.4%
Change in CPMM % Purity (SBECD 10% in pH 3 buffer, 2 weeks 40° C./75% RH): −2.1%
CPMM % Purity (SBECD 10% in pH 3 buffer): 99.4%
Change in CPMM % Purity (Sodium Bisulfite 0.5% in pH 3 buffer, 1 week 25° C./60% RH): −1.9%
Change in CPMM % Purity (Sodium Bisulfite 0.5% in pH 3 buffer, 1 week 40° C./75% RH): −7.2%
Change in CPMM % Purity (Sodium Bisulfite 0.5% in pH 3 buffer, 2 weeks 25° C./60% RH): −3.2%
Change in CPMM % Purity (Sodium Bisulfite 0.5% in pH 3 buffer, 2 weeks 40° C./75% RH): −12.2%
CPMM % Purity (Sodium Bisulfite 0.5% in pH 3 buffer): 99.4%
Change in CPMM % Purity (Solutol HS15 1% in pH 3 buffer, 1 week 25° C./60% RH): −1.3%
Change in CPMM % Purity (Solutol HS15 1% in pH 3 buffer, 1 week 40° C./75% RH): −4.2%
Change in CPMM % Purity (Solutol HS15 1% in pH 3 buffer, 2 weeks 25° C./60% RH): −2.1%
Change in CPMM % Purity (Solutol HS15 1% in pH 3 buffer, 2 weeks 40° C./75% RH): −7.3%
CPMM % Purity (Solutol HS15 1% in pH 3 buffer): 99.4%
Change in CPMM % Purity (Sorbitol 5% in pH 3 buffer, 1 week 25° C./60% RH): −1.3%
Change in CPMM % Purity (Sorbitol 5% in pH 3 buffer, 1 week 40° C./75% RH): −4.5%
Change in CPMM % Purity (Sorbitol 5% in pH 3 buffer, 2 weeks 25° C./60% RH): −2.3%
Change in CPMM % Purity (Sorbitol 5% in pH 3 buffer, 2 weeks 40° C./75% RH): −8.3%
CPMM % Purity (Sorbitol 5% in pH 3 buffer): 99.5%
Change in CPMM % Purity (Sucrose 5% in pH 3 buffer, 1 week 25° C./60% RH): −1.5%
Change in CPMM % Purity (Sucrose 5% in pH 3 buffer, 1 week 40° C./75% RH): −5.2%
Change in CPMM % Purity (Sucrose 5% in pH 3 buffer, 2 weeks 25° C./60% RH): −2.5%
Change in CPMM % Purity (Sucrose 5% in pH 3 buffer, 2 weeks 40° C./75% RH): −9.0%
CPMM % Purity (Sucrose 5% in pH 3 buffer): 99.4%
Change in CPMM % Purity (Trehalose 5% in pH 3 buffer, 1 week 25° C./60% RH): −1.3%
Change in CPMM % Purity (Trehalose 5% in pH 3 buffer, 1 week 40° C./75% RH): −4.6%
Change in CPMM % Purity (Trehalose 5% in pH 3 buffer, 2 weeks 25° C./60% RH): −2.3%
Change in CPMM % Purity (Trehalose 5% in pH 3 buffer, 2 weeks 40° C./75% RH): −8.4%
CPMM % Purity (Trehalose 5% in pH 3 buffer): 99.4%
